Laboratory results published in patent US12479840B2, “HMG-CoA reductase degradation inducing compound” (Uppthera, priority 2020, dated 2025).

Target: T1, HMG-CoA reductase (Homo sapiens, UniProt P04035)
T1 construct: endogenous in cells; host or cells: HepG2 (Korea Cell Line Bank)
T1 sequence (P04035 1-888): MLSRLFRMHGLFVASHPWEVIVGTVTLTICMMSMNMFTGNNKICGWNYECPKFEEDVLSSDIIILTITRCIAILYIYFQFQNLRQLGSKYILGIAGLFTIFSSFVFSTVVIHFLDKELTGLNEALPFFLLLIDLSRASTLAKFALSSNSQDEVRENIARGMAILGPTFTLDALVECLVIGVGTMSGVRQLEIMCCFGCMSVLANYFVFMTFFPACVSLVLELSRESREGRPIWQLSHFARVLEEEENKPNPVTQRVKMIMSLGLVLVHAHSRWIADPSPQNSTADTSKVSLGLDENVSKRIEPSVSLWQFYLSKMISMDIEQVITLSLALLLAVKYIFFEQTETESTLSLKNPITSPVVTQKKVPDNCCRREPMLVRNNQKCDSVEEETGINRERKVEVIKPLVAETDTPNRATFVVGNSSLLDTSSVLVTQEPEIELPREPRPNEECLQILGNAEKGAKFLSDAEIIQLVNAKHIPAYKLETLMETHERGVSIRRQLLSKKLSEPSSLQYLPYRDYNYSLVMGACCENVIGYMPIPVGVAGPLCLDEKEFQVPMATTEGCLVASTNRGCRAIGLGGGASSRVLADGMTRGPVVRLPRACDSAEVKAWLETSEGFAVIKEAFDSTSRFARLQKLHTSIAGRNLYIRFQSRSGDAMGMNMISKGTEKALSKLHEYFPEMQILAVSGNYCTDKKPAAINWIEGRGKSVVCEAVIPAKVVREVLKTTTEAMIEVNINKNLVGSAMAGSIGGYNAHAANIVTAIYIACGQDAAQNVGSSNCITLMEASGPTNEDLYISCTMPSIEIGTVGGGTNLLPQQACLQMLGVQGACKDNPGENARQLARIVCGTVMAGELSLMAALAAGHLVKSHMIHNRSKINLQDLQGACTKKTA
Test: HMG-CoA reductase (HMGCR) degradation in HepG2 cells by western blotting
Assay type: cell-based
Settings: treated for 18 hours, ratio of HMG-CoA reductase to GAPDH, read-out: DC50
How it was run: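 HepG2 cells (passage P105–P110) treated 18 hours with compounds in 10-point three-fold dilutions from 3 μM. RIPA lysates (15 μg protein, BCA-quantified) run on SDS-PAGE and immunoblotted for HMGCR (1:500) with GAPDH (1:20000) as loading control, primary antibodies 16 hours at 4° C.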

| Structure (SMILES) | DC50 |
| --- | --- |
| C[C@H]1C=C2C=C[C@H](C)[C@H](CC[C@@H]3C[C@@H](O[Si](C)(C)C(C)(C)C)CC(=O)O3)[C@H]2[C@@H](OC(=O)NCCCCCCCCCNc2cccc3c2C(=O)N(C2CCC(=O)NC2=O)C3=O)C1 (stereo partly drawn) [Compound 55, (1S,3R,7S,8S,8aR)-8-(2-((2R,4R)-4-((tert-butyldimethylsilyl)oxy)-6-oxotetrahydro-2H-pyran-2-yl)ethyl)-3,7-dimethyl-1,2,3,7,8,8a-hexahydronaphthalen-1-yl (9-((2-(2,6-dioxopiperidin-3-yl)-1,3-dioxoisoindolin-4-yl)amino)nonyl)carbamate] | < 0.05 µM |
| CN[C@@H](C)C(=O)N[C@H](C(=O)N1CCC[C@H]1c1nc(C(=O)c2cccc(OCCOCCOCCOCCNC(=O)O[C@H]3C[C@@H](C)C=C4C=C[C@H](C)[C@H](CC[C@@H]5C[C@@H](O)CC(=O)O5)[C@H]43)c2)cs1)C1CCCCC1 [Compound 32, (1S,3R,7S,8S,8aR)-8-(2-((2R,4R)-4-hydroxy-6-oxotetrahydro-2H-pyran-2-yl)ethyl)-3,7-dimethyl-1,2,3,7,8,8a-hexahydronaphthalen-1-yl (2-(2-(2-(2-(3-(2-((S)-1-((S)-2-cyclohexyl-2-((S)-2-(methylamino)propanamido)acetyl)pyrrolidin-2-yl)thiazole-4-carbonyl)phenoxy)ethoxy)ethoxy)ethoxy)ethyl)carbamate] | < 0.05 µM |
| C[C@H]1C=C2C=C[C@H](C)[C@H](CC[C@@H]3C[C@@H](O[Si](C)(C)C(C)(C)C)CC(=O)O3)[C@H]2[C@@H](OC(=O)NCCc2ccc(CC(=O)Nc3cccc4c3C(=O)N(C3CCC(=O)NC3=O)C4=O)cc2)C1 (stereo partly drawn) [Compound 146, (1S,3R,7S,8S,8aR)-8-(2-((2R,4R)-4-((tert-butyldimethylsilyl)oxy)-6-oxotetrahydro-2H-pyran-2-yl)ethyl)-3,7-dimethyl-1,2,3,7,8,8a-hexahydronaphthalen-1-yl (4-(2-((2-(2,6-dioxopiperidin-3-yl)-1,3-dioxoisoindolin-4-yl)amino)-2-oxoethyl)phenethyl)carbamate] | < 0.05 µM |
| Cc1ncsc1-c1ccc(CNC(=O)[C@@H]2C[C@@H](O)CN2C(=O)[C@@H](NC(=O)C2(F)CC2)C(C)(C)C)c(OCCOCCOCCOCCNC(=O)O[C@H]2C[C@@H](C)C=C3C=C[C@H](C)[C@H](CC[C@@H]4C[C@@H](O)CC(=O)O4)[C@H]32)c1 [Compound 25, (1S,3R,7S,8S,8aR)-8-(2-((2R,4R)-4-hydroxy-6-oxotetrahydro-2H-pyran-2-yl)ethyl)-3,7-dimethyl-1,2,3,7,8,8a-hexahydronaphthalen-1-yl (2-(2-(2-(2-(2-(((2S,4R)-1-((S)-2-(1-fluorocyclopropane-1-carboxamido)-3,3-dimethylbutanoyl)-4-hydroxypyrrolidine-2-carboxamido)methyl)-5-(4-methylthiazol-5-yl)phenoxy)ethoxy)ethoxy)ethoxy)ethyl)carbamate] | < 0.05 µM |
| C[C@H]1C=C2C=C[C@H](C)[C@H](CC[C@@H]3C[C@@H](O[Si](C)(C)C(C)(C)C)CC(=O)O3)[C@H]2[C@@H](OC(=O)NCCOCCNc2cccc3c2C(=O)N(C2CCC(=O)NC2=O)C3=O)C1 (stereo partly drawn) [Compound 86, (1S,3R,7S,8S,8aR)-8-(2-((2R,4R)-4-((tert-butyldimethylsilyl)oxy)-6-oxotetrahydro-2H-pyran-2-yl)ethyl)-3,7-dimethyl-1,2,3,7,8,8a-hexahydronaphthalen-1-yl (2-(2-((2-(2,6-dioxopiperidin-3-yl)-1,3-dioxoisoindolin-4-yl)amino)ethoxy)ethyl)carbamate] | < 0.05 µM |
| C[C@H]1C=C2C=C[C@H](C)[C@H](CC[C@@H]3C[C@@H](O[Si](C)(C)C(C)(C)C)CC(=O)O3)[C@H]2[C@@H](OC(=O)NCCCCCNc2cccc3c2C(=O)N(C2CCC(=O)NC2=O)C3=O)C1 (stereo partly drawn) [Compound 51, (1S,3R,7S,8S,8aR)-8-(2-((2R,4R)-4-((tert-butyldimethylsilyl)oxy)-6-oxotetrahydro-2H-pyran-2-yl)ethyl)-3,7-dimethyl-1,2,3,7,8,8a-hexahydronaphthalen-1-yl (5-((2-(2,6-dioxopiperidin-3-yl)-1,3-dioxoisoindolin-4-yl)amino)pentyl)carbamate] | < 0.05 µM |
| C[C@H]1C=C2C=C[C@H](C)[C@H](CC[C@@H]3C[C@@H](O)CC(=O)O3)[C@H]2[C@@H](OC(=O)C(C)(C)CCC(=O)NCCOCCOCCNc2cccc3nnn(C4CCC(=O)NC4=O)c(=O)c23)C1 (stereo partly drawn) [Compound 152, (1S,3R,7S,8S,8aR)-8-(2-((2R,4R)-4-hydroxy-6-oxotetrahydro-2H-pyran-2-yl)ethyl)-3,7-dimethyl-1,2,3,7,8,8a-hexahydronaphthalen-1-yl 5-((2-(2-(2-((3-(2,6-dioxopiperidin-3-yl)-4-oxo-3,4-dihydrobenzo[d][1,2,3]triazin-5-yl)amino)ethoxy)ethoxy)ethyl)amino)-2,2-dimethyl-5-oxopentanoate] | < 0.05 µM |
| C[C@H]1C=C2C=C[C@H](C)[C@H](CC[C@@H]3C[C@@H](O[Si](C)(C)C(C)(C)C)CC(=O)O3)[C@H]2[C@@H](OC(=O)NCCCCCN2CCC(Nc3cccc4c3C(=O)N(C3CCC(=O)NC3=O)C4=O)CC2)C1 (stereo partly drawn) [Compound 124, (1S,3R,7S,8S,8aR)-8-(2-((2R,4R)-4-((tert-butyldimethylsilyl)oxy)-6-oxotetrahydro-2H-pyran-2-yl)ethyl)-3,7-dimethyl-1,2,3,7,8,8a-hexahydronaphthalen-1-yl (5-(4-((2-(2,6-dioxopiperidin-3-yl)-1,3-dioxoisoindolin-4-yl)amino)piperidin-1-yl)pentyl)carbamate] | < 0.05 µM |

Now from value to compound:

| DC50 | Structure (SMILES) |
| --- | --- |
| 0.05 to 0.5 µM | C[C@H]1C=C2C=C[C@H](C)[C@H](CC[C@@H]3C[C@@H](O)CC(=O)O3)[C@H]2[C@@H](OC(=O)NCCCOCCCOCCCNc2cccc3c2C(=O)N(C2CCC(=O)NC2=O)C3=O)C1 (stereo partly drawn) [Compound 95, (1S,3R,7S,8S,8aR)-8-(2-((2R,4R)-4-hydroxy-6-oxotetrahydro-2H-pyran-2-yl)ethyl)-3,7-dimethyl-1,2,3,7,8,8a-hexahydronaphthalen-1-yl (3-(3-(3-((2-(2,6-dioxopiperidin-3-yl)-1,3-dioxoisoindolin-4-yl)amino)propoxy)propoxy)propyl)carbamate] |
| < 0.05 µM | C[C@H]1C=C2C=C[C@H](C)[C@H](CC[C@@H]3C[C@@H](O)CC(=O)O3)[C@H]2[C@@H](OC(=O)N2CCC(CCOCCNc3cccc4c3C(=O)N(C3CCC(=O)NC3=O)C4=O)CC2)C1 (stereo partly drawn) [Compound 85, (1S,3R,7S,8S,8aR)-8-(2-((2R,4R)-4-hydroxy-6-oxotetrahydro-2H-pyran-2-yl)ethyl)-3,7-dimethyl-1,2,3,7,8,8a-hexahydronaphthalen-1-yl4-(2-(2-((2-(2,6-dioxopiperidin-3-yl)-1,3-dioxoisoindolin-4-yl)amino)ethoxy)ethyl)piperidine-1-carboxylate] |
| < 0.05 µM | C[C@H]1C=C2C=C[C@H](C)[C@H](CC[C@@H]3C[C@@H](O)CC(=O)O3)[C@H]2[C@@H](OC(=O)NCCOCCOCCCNc2cccc3c2C(=O)N(C2CCC(=O)NC2=O)C3=O)C1 (stereo partly drawn) [Compound 93, (1S,3R,7S,8S,8aR)-8-(2-((2R,4R)-4-hydroxy-6-oxotetrahydro-2H-pyran-2-yl)ethyl)-3,7-dimethyl-1,2,3,7,8,8a-hexahydronaphthalen-1-yl (2-(2-(3-((2-(2,6-dioxopiperidin-3-yl)-1,3-dioxoisoindolin-4-yl)amino)propoxy)ethoxy)ethyl)carbamate] |
| < 0.05 µM | C[C@H]1C=C2C=C[C@H](C)[C@H](CC[C@@H]3C[C@@H](O)CC(=O)O3)[C@H]2[C@@H](OC(=O)NCCOCCOCCNc2ccc3c(c2)C(=O)N(C2CCC(=O)NC2=O)C3=O)C1 (stereo partly drawn) [Compound 68, (1S,3R,7S,8S,8aR)-8-(2-((2R,4R)-4-hydroxy-6-oxotetrahydro-2H-pyran-2-yl)ethyl)-3,7-dimethyl-1,2,3,7,8,8a-hexahydronaphthalen-1-yl (2-(2-(2-((2-(2,6-dioxopiperidin-3-yl)-1,3-dioxoisoindolin-5-yl)amino)ethoxy)ethoxy)ethyl)carbamate] |
| < 0.05 µM | C[C@H]1C=C2C=C[C@H](C)[C@H](CC[C@@H]3C[C@@H](O)CC(=O)O3)[C@H]2[C@@H](OC(=O)NCCOCCOCCNc2cccc3c2C(=O)N(C2CCC(=O)NC2=O)C3=O)C1 (stereo partly drawn) [Compound 40, (1S,3R,7S,8S,8aR)-8-(2-((2R,4R)-4-hydroxy-6-oxotetrahydro-2H-pyran-2-yl)ethyl)-3,7-dimethyl-1,2,3,7,8,8a-hexahydronaphthalen-1-yl (2-(2-(2-((2-(2,6-dioxopiperidin-3-yl)-1,3-dioxoisoindolin-4-yl)amino)ethoxy)ethoxy)ethyl)carbamate] |
